Here are results for 19 compounds from PubChem BioAssay AID330 (DTP/NCI, 2004).

The test system of this assay is P388 leukemia ip, CD2F1 mice, survival T/C. Put plainly: NCI In Vivo Anticancer Drug Screen. Data for tumor model P388 Leukemia (intraperitoneal) in CD2F1 (CDF1) mice. The conditions noted are these: endpoint: median survival time, higher = longer survival. The gist of the method:
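Mice carrying the transplanted tumor received test compound or vehicle. Survival was recorded in each group, and the value is the treated-group measurement divided by that of the vehicle-treated control group.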

Where [1] appears, read: dose: 12.5 mg/kg/injection, schedule: Q01DX009 (ip), vehicle: saline with Tween-80.
The mark [2] stands for this setting: dose: 100.0 mg/kg/injection, schedule: Q01DX009 (ip), vehicle: saline with Tween-80.
The mark [3] stands for this setting: dose: 50.0 mg/kg/injection, schedule: Q01DX005 (ip), vehicle: saline with Tween-80.
[4] abbreviates: dose: 100.0 mg/kg/injection, schedule: Q01DX005 (ip), vehicle: saline with Tween-80.
[5] abbreviates: dose: 6.25 mg/kg/injection, schedule: Q01DX009 (ip), vehicle: saline.
[6] abbreviates: dose: 100.0 mg/kg/injection, schedule: Q04DX003 (ip), vehicle: saline with Tween-80.
Where [7] appears, read: dose: 200.0 mg/kg/injection, schedule: Q04DX003 (ip), vehicle: saline with Tween-80.
The mark [8] stands for this setting: dose: 400.0 mg/kg/injection, schedule: Q04DX003 (ip), vehicle: saline with Tween-80.
Setting [9] is: dose: 60.0 mg/kg/injection, schedule: Q01DX005 (ip), vehicle: saline with Tween-80.
Setting [10] is: dose: 120.0 mg/kg/injection, schedule: Q01DX005 (ip), vehicle: saline with Tween-80.
[11] abbreviates: dose: 50.0 mg/kg/injection, schedule: Q01DX005 (ip), vehicle: Klucel (hydroxypropylcellulose) (HPC).

Values joined by “and” are separate entries in the source; they are usually repeats but may differ in a detail not shown here. Equal values may be shown once. Inconclusive results and toxic doses are left out.

For `O=C1O/C(=C(/C(=O)O)c2ccc(O)cc2)C(O)=C1c1cc2c3c(c(O)cc(C4=C(O)/C(=C(\C(=O)O)c5ccc(O)cc5)OC4=O)c3c1)OC2=O`, the T/C is 94 % of control (dose: 10.25 mg/kg/injection, schedule: Q01DX005 (ip), vehicle: DMSO); 98 % of control (dose: 12.0 mg/kg/injection, schedule: Q01DX005 (ip), vehicle: DMSO); 110 % of control (dose: 20.5 mg/kg/injection, schedule: Q01DX005 (ip), vehicle: DMSO); 106 % of control (dose: 24.0 mg/kg/injection, schedule: Q01DX005 (ip), vehicle: DMSO); 106 % of control (dose: 41.0 mg/kg/injection, schedule: Q01DX005 (ip), vehicle: DMSO).
For `Cc1cc(C)c(O)c(CS(=O)(=O)Cc2cc(C)cc(C)c2O)c1`, the T/C is 101 % of control (dose: 100.0 mg/kg/injection, schedule: Q04DX002 (ip), vehicle: saline); 97 % of control (dose: 200.0 mg/kg/injection, schedule: Q04DX002 (ip), vehicle: saline); 91 % of control (dose: 400.0 mg/kg/injection, schedule: Q04DX002 (ip), vehicle: saline).
Consider `CCCCCCCCCCCCCCCCCCCCCC(=O)Nc1ccn(C2OC(CO)C(O)C2O)c(=O)n1` (configuration not stated), for which the T/C is, setting by setting: (dose: 1.56 mg/kg/injection, schedule: Q01DX009 (ip), vehicle: saline with Tween-80) 155 % of control; (dose: 3.12 mg/kg/injection, schedule: Q01DX009 (ip), vehicle: saline with Tween-80) 198 % of control and 209 % of control; (dose: 6.25 mg/kg/injection, schedule: Q01DX009 (ip), vehicle: saline with Tween-80) 106 % of control and 206 % of control and 235 % of control; under setting [1], 256 % of control and 309 % of control; under setting [2], 195 % of control.
On to `COc1cc2c(c(OC)c1OC)-c1oncc1CC2`, for which the T/C (dose: 100.0 mg/kg/injection, schedule: Q04DX003 (ip), vehicle: Klucel (hydroxypropylcellulose) (HPC)) is 90 % of control; the T/C (dose: 200.0 mg/kg/injection, schedule: Q04DX003 (ip), vehicle: Klucel (hydroxypropylcellulose) (HPC)) is 92 % of control; the T/C (dose: 400.0 mg/kg/injection, schedule: Q04DX003 (ip), vehicle: Klucel (hydroxypropylcellulose) (HPC)) is 87 % of control.
Regarding `COc1ccc2[nH]cc(C3CCCN4CCCCC34)c2c1` (configuration not stated), the T/C is 101 % of control under setting [3] and 99 % of control under setting [4].
Regarding `Cc1nnc2c3nccn3ccn12`, the T/C reads like this: (dose: 12.5 mg/kg/injection, schedule: Q01DX001 (ip), vehicle: saline with Tween-80) 106 % of control; (dose: 25.0 mg/kg/injection, schedule: Q01DX001 (ip), vehicle: saline with Tween-80) 101 % of control; (dose: 50.0 mg/kg/injection, schedule: Q01DX001 (ip), vehicle: saline with Tween-80) 106 % of control.
For the compound `COc1ccc2c(c1)CCC1(C)CC(=O)C(Br)=C21` (configuration not stated), the T/C was 109 % of control and 112 % of control and 114 % of control (dose: 6.25 mg/kg/injection, schedule: Q01DX009 (ip), vehicle: Klucel (hydroxypropylcellulose) (HPC)); 100 % of control and 107 % of control and 114 % of control (dose: 12.5 mg/kg/injection, schedule: Q01DX009 (ip), vehicle: Klucel (hydroxypropylcellulose) (HPC)); 102 % of control and 107 % of control (dose: 25.0 mg/kg/injection, schedule: Q01DX009 (ip), vehicle: Klucel (hydroxypropylcellulose) (HPC)); 106 % of control (dose: 50.0 mg/kg/injection, schedule: Q01DX009 (ip), vehicle: Klucel (hydroxypropylcellulose) (HPC)).
Turning to `CP1(=O)CC(=O)CCCCC(=O)C1`, the T/C was 104 % of control under setting [5]; 114 % of control (dose: 12.5 mg/kg/injection, schedule: Q01DX009 (ip), vehicle: saline); 104 % of control (dose: 25.0 mg/kg/injection, schedule: Q01DX009 (ip), vehicle: saline); 100 % of control under setting [2]; 98 % of control (dose: 200.0 mg/kg/injection, schedule: Q01DX009 (ip), vehicle: saline with Tween-80).
Consider `CSc1nc2ccc(N)cc2s1`, for which the T/C under setting [6] was 97 % of control, the T/C under setting [7] was 99 % of control and the T/C under setting [8] was 93 % of control.
As to `COc1ccc2[nH]cc(CCN(C)C)c2c1`, the T/C was 115 % of control under setting [1]; 113 % of control (dose: 16.5 mg/kg/injection, schedule: Q01DX009 (ip), vehicle: saline with Tween-80); 104 % of control (dose: 25.0 mg/kg/injection, schedule: Q01DX009 (ip), vehicle: saline with Tween-80); 109 % of control (dose: 37.5 mg/kg/injection, schedule: Q01DX009 (ip), vehicle: saline with Tween-80); 115 % of control (dose: 50.0 mg/kg/injection, schedule: Q01DX009 (ip), vehicle: saline with Tween-80).
On to `c1ccc2c(-c3cc(-c4cc(-c5cccc6ccccc56)on4)no3)cccc2c1`, for which the T/C is, setting by setting: under setting [9], 106 % of control; under setting [10], 97 % of control; (dose: 240.0 mg/kg/injection, schedule: Q01DX005 (ip), vehicle: saline with Tween-80) 100 % of control.
Regarding `C[C](C)(C)[Ge]([O][Ge]([c]1ccccc1)[c]1ccccc1)([O][Ge]([c]1ccccc1)[c]1ccccc1)[C](C)(C)C`, the T/C was 103 % of control (dose: 15.0 mg/kg/injection, schedule: Q01DX005 (ip), vehicle: saline with Tween-80); 103 % of control (dose: 30.0 mg/kg/injection, schedule: Q01DX005 (ip), vehicle: saline with Tween-80); 110 % of control and 117 % of control under setting [9]; 117 % of control under setting [10].
Consider `COc1ccc(-c2c3ccc(=O)c(OC)cc3cn2C)cc1OC`, for which the T/C runs as follows: under setting [11], 102 % of control; (dose: 100.0 mg/kg/injection, schedule: Q01DX005 (ip), vehicle: Klucel (hydroxypropylcellulose) (HPC)) 94 % of control; (dose: 200.0 mg/kg/injection, schedule: Q01DX005 (ip), vehicle: Klucel (hydroxypropylcellulose) (HPC)) 94 % of control.
On to `Nc1ccccc1-n1nc2ccc3ccccc3c2n1`, for which the T/C is 100 % of control under setting [6], 95 % of control under setting [7] and 95 % of control under setting [8].
In the case of `CC1=C(C(N)=O)C(c2ccc(O)cc2)NC(=S)N1` (configuration not stated), the T/C was 101 % of control (dose: 60.0 mg/kg/injection, schedule: Q01DX005 (ip), vehicle: Klucel (hydroxypropylcellulose) (HPC)); 101 % of control (dose: 120.0 mg/kg/injection, schedule: Q01DX005 (ip), vehicle: Klucel (hydroxypropylcellulose) (HPC)); 101 % of control (dose: 240.0 mg/kg/injection, schedule: Q01DX005 (ip), vehicle: Klucel (hydroxypropylcellulose) (HPC)).
Consider `COC(=O)Nc1ccc2c(c1)Cc1cc(NC(=O)OC)ccc1-2`, for which the T/C runs as follows: under setting [3], 94 % of control; under setting [4], 92 % of control; (dose: 200.0 mg/kg/injection, schedule: Q01DX005 (ip), vehicle: saline with Tween-80) 90 % of control.
In the case of `C[n+]1ccc(-c2cc[n+](C)cc2)cc1`, the T/C (dose: 0.39 mg/kg/injection, schedule: Q01DX009 (ip), vehicle: saline) was 98 % of control; the T/C (dose: 0.78 mg/kg/injection, schedule: Q01DX009 (ip), vehicle: saline) was 109 % of control; the T/C (dose: 1.56 mg/kg/injection, schedule: Q01DX009 (ip), vehicle: saline) is 103 % of control and 109 % of control; the T/C (dose: 3.12 mg/kg/injection, schedule: Q01DX009 (ip), vehicle: saline) was 100 % of control and 89 % of control; the T/C under setting [5] is 87 % of control.
Regarding `CCc1ccc(C2=C(Cl)C(=O)C(c3ccccc3)=C(Cl)C2=O)cc1`, the T/C by setting is: (dose: 12.5 mg/kg/injection, schedule: Q01DX005 (ip), vehicle: Klucel (hydroxypropylcellulose) (HPC)) 98 % of control; (dose: 25.0 mg/kg/injection, schedule: Q01DX005 (ip), vehicle: Klucel (hydroxypropylcellulose) (HPC)) 93 % of control; under setting [11], 93 % of control and 98 % of control.
For the compound `CCCCC(CCCC)=NO`, the T/C is 108 % of control under setting [3] and 100 % of control under setting [4].
